From PMC8643097 (British journal of pharmacology, 2021)

How the values were obtained:
[1] = molecular target: Nav1.7 (Homo sapiens, UniProt Q15858); type: cell-based
[2] = molecular target: Nav1.8 (Homo sapiens, UniProt Q9Y5Y9); type: cell-based; details: CHO-K1, read-out: % inhibition at 300 μM
Chain of Nav1.8 (Q9Y5Y9 whole entry): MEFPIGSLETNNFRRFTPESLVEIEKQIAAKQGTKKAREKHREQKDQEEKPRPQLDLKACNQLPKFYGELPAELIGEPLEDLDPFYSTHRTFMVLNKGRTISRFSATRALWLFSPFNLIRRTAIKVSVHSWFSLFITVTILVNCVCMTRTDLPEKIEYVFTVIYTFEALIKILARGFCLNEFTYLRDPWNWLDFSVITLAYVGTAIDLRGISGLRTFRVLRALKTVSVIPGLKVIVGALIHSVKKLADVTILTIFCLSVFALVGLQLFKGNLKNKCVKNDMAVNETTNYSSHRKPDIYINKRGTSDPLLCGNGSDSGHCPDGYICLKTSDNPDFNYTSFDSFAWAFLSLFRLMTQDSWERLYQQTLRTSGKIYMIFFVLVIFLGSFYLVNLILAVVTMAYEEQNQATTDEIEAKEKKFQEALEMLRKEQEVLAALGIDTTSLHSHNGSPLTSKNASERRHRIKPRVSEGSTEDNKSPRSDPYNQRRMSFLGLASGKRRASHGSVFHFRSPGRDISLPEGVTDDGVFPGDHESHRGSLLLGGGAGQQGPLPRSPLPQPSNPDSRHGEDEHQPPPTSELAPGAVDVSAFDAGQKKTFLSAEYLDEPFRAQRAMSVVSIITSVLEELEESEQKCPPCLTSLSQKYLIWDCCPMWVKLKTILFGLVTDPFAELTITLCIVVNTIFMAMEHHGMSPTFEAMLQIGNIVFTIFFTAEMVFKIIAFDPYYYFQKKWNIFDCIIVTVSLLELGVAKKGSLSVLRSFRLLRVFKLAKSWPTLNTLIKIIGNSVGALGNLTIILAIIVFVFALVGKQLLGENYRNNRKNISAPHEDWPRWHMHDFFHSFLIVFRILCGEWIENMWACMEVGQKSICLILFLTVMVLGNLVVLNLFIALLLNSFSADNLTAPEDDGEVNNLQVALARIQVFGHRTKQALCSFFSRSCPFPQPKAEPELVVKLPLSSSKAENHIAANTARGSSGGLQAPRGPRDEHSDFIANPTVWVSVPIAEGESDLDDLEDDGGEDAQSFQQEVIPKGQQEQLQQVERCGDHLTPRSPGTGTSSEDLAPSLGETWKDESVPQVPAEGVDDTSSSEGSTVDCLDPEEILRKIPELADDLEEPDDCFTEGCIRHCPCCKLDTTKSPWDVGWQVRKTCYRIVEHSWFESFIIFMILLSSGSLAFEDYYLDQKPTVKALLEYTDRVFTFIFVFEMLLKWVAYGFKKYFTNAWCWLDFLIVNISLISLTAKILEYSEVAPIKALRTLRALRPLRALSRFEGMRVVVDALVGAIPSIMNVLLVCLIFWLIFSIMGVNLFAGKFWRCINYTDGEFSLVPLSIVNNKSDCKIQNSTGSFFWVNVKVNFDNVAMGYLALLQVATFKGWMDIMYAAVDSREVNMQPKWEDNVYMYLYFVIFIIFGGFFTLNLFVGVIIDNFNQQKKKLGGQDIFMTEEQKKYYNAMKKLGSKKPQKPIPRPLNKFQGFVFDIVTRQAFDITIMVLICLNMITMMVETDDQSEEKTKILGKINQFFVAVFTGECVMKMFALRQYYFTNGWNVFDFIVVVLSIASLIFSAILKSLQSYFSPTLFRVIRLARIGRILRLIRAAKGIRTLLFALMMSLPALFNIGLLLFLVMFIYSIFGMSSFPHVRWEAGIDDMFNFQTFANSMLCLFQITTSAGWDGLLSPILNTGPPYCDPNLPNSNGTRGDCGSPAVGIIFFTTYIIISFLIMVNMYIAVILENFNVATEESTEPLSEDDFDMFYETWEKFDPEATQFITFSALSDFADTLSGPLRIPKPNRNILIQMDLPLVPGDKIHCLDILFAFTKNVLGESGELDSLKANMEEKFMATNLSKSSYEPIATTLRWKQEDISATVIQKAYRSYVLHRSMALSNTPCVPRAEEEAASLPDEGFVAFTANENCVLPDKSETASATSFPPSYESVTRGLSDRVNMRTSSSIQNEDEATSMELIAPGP
Chain of Nav1.8 (Q9NY72 23-215 partner): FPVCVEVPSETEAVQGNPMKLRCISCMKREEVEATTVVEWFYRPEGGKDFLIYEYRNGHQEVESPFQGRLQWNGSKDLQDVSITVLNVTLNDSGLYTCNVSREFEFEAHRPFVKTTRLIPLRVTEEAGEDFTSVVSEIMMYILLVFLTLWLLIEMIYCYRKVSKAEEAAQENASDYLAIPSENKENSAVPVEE

Chain of Nav1.7 (Q15858 whole entry): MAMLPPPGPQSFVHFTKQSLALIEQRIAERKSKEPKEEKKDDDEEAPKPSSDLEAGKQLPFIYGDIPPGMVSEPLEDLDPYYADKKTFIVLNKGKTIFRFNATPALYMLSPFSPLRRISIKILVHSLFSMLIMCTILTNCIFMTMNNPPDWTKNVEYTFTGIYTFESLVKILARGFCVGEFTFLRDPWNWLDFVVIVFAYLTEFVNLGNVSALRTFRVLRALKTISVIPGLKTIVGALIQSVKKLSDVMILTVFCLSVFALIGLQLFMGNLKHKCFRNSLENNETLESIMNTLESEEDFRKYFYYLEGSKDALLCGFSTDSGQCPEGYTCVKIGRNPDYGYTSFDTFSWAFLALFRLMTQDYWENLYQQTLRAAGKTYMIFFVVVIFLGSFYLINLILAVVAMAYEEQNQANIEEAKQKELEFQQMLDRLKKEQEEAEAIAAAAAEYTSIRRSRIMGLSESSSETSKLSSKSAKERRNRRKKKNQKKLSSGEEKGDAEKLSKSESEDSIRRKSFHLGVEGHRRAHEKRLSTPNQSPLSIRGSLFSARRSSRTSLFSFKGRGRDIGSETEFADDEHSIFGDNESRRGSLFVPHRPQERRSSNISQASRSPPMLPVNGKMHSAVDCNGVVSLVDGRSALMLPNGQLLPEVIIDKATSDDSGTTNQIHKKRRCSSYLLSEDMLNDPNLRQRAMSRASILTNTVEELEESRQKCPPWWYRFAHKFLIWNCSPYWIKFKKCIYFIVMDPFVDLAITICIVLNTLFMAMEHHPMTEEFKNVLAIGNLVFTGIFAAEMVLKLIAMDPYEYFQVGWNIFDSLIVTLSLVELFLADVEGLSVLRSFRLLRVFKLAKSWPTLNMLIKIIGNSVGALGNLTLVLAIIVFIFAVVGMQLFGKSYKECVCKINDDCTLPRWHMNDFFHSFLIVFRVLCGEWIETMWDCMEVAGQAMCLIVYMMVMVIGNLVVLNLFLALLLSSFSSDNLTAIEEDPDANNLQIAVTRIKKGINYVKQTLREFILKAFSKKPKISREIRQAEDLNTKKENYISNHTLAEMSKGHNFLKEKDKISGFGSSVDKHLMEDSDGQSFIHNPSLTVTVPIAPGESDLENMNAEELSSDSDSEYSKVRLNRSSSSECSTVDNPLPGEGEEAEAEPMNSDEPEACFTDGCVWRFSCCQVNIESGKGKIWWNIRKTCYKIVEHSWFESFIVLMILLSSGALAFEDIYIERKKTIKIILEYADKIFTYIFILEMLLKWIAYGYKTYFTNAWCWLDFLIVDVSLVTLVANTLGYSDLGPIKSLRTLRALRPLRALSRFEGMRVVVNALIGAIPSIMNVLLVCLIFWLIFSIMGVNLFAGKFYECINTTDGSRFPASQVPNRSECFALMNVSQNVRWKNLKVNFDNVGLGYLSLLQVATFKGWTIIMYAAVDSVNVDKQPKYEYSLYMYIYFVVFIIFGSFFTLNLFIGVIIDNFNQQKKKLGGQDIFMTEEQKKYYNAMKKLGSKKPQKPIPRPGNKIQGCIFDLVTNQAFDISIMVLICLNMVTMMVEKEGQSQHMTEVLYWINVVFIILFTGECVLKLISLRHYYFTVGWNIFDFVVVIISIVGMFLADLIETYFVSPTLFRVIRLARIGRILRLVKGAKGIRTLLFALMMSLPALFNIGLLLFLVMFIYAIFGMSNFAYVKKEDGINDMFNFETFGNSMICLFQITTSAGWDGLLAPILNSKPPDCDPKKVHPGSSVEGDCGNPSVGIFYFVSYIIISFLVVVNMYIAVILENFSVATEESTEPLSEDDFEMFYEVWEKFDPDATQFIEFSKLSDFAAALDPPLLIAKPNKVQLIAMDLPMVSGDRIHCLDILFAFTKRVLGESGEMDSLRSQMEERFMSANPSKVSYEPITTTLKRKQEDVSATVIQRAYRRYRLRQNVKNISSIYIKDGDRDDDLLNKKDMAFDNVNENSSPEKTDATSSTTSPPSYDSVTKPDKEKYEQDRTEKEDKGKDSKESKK

SMILES	IC50 [1]	inhibition at 300 µM [2]
CCC(C(=O)Nc1c(C)cccc1C)[N+]1(CC)CCCCC1 (stereo not drawn) [BW-031, 1-(1-(2,6-dimethylphenylamino)-1-oxobutan-2-yl)-1-ethylpiperidinium]	9.5 µM	30 ± 18%
CC[N+](CC)(CC)CC(=O)Nc1c(C)cccc1C [QX-314]	66 µM	–
